Reference: paper PMC6429507, “Triterpene-Based Carboxamides Act as Good Inhibitors of Butyrylcholinesterase” (Molecules, 2019)
Read-outs that look alike come from different tables or passages of the source.

What was measured:
[1] = Solubility under the conditions of the assay; settings: Ellman's assay conditions
Experimental: (§1) In this study, carboxamides with different triterpenoic backbones (ursolic, oleanolic, maslinic, betulinic, and platanic acids), and various amine residues (Scheme 1), were investigated.
(§2) 3.1 Preparation of the solutions
(§3) Preparation of 50 mM Tris-HCl buffer solutions: Tris(hydroxymethyl)-aminomethane (606 mg) was dissolved in bidestilled water (100 mL) and adjusted with HCl to a pH of 8.0 ± 0.1. Buffers were freshly prepared and stored in the refrigerator. AChE solution 2.005 U/mL: the enzyme (271 U/mg, 0.037 mg) was dissolved in freshly prepared buffer pH 8.0 (5 mL) containing NaN3 (0.98 mg). BChE solution 2.040 U/mL: the enzyme (7.54 U/mg, 1.353 mg) was dissolved in freshly prepared buffer pH 8.0 (5 mL) containing NaN3 (0.98 mg). DTNB solution 3 mM: DTNB (23.8 mg) was dissolved in freshly prepared buffer pH 8.0 (20 mL) containing NaCl (116.8 mg) and MgCl2 (38.0 mg). ATChI solution 15 mM:
(§4) ATChI (43.4 mg) was dissolved in bidestilled water (10 mL). All solutions were stored in Eppendorf caps in the refrigerator or in the freezer, if necessary. The pure compounds were […]
(§5) dissolved in bidistilled water. The final concentrations for the enzymatic assay were obtained by diluting the stock solution with bidistilled water.
(§6) A mixture of the DTNB solution (125 µL), enzyme solution (25 µL) and compounds solutions (25 µL, 3 different concentrations and once blank water) was prepared and incubated at 30 °C for 20 min. The substrate (25 µL, 4 different concentrations) was added to start the enzymatic reaction. The absorbance data (l = 415 nm) was recorded under a controlled temperature of 30 °C for 30 min at 1 min intervals. The substrate concentrations in the test were as follows: […]
(§7) determined as the quotient of the slopes (compound divided by blank) of the linear ranges.
(§8) The used substrate concentration was 0.625 mM. The absorbance data was recorded under a controlled temperature of 30 °C for 10 min.

[2] = molecular target: acetylcholinesterase (AChE, electric eel) (Electrophorus electricus, UniProt O42275); settings: for Grade of inhibition in% AChE / Ki' (uncompetitive inhibition) / Ki: mean ± SE; for Type of Inhibition / Ki' (uncompetitive inhibition) / Ki: AChE, electric eel; for Ki: read-out: Ki (competitive inhibition)
Excerpt: as §1
(§9) A TECAN SpectraFluorPlus working in the kinetic mode and measuring the absorbance at λ = 415 nm was used for the enzymatic studies. Acetylcholinesterase (from Electrophorus electricus), 5,5′-dithiobis-(2-nitrobenzoic acid) (DTNB) and acetylthiocholine iodide were purchased from Sigma. Butyrylcholinesterase (from equine serum) was purchased from Fluka. Preparation of the solutions, assay procedure, as well as molecular modeling conditions can be found in the Supplementary Materials.
as §2, §3, §4, §5, §6, §7, §8

[3] = molecular target: T1, butyrylcholinesterase (BChE, equine serum) (Equus caballus, UniProt P81908); test: Ellman's assay, butyrylcholinesterase inhibition; format: biochemical; settings: for Grade of inhibition in% BChE: mean ± SE
T1 construct: Butyrylcholinesterase (from equine serum) was purchased from Fluka; purchased Fluka; host or cells: equine serum
Excerpt: as §1, §9, §2, §3, §4, §5, §6, §7, §8

[4] = BChE, equine serum, Ellman's assay
[5] = BChE, equine serum, Ellman's assay, read-out: Ki (competitive inhibition)

Sequence of acetylcholinesterase (AChE, electric eel) (O42275 24-633): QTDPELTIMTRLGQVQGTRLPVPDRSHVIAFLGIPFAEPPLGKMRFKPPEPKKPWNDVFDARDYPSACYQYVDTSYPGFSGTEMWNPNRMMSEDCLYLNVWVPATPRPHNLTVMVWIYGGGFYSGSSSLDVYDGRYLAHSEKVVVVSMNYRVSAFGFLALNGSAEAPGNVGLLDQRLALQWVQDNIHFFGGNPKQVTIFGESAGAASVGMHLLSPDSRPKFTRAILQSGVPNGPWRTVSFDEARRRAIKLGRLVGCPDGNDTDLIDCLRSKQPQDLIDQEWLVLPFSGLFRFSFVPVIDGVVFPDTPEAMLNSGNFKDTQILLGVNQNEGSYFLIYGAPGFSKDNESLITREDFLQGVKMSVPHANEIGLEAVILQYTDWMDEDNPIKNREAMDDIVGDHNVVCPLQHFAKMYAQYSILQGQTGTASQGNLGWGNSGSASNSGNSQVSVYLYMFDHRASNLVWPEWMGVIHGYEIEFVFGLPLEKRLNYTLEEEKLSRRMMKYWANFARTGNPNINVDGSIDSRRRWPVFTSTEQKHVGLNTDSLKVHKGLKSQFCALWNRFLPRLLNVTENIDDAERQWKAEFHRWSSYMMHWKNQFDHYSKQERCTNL
T1 sequence (P81908 whole entry): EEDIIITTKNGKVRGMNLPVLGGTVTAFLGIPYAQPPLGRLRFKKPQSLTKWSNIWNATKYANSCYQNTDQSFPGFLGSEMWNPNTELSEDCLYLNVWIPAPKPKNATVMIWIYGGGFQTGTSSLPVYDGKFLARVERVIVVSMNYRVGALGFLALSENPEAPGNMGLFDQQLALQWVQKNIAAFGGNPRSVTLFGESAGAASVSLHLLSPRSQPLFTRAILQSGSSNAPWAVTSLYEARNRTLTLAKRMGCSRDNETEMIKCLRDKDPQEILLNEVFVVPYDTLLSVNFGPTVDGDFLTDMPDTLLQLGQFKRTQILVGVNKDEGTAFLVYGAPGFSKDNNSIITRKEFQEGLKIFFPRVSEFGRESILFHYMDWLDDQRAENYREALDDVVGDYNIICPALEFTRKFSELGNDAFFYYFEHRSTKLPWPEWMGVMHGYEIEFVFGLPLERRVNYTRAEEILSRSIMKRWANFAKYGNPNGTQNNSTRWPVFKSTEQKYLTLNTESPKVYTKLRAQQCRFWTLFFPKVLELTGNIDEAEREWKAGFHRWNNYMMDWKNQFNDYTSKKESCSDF

| SMILES | Grade of inhibition in% AChE ([2]; c = 10 µM) [%] | Type of Inhibition ([3]; BChE, equine serum) | Ki′ (uncompetitive inhibition) [3, 4] [µM] | Ki [3, 5] [µM] | Grade of inhibition in% BChE ([3]; c = 10 µM) [%] | further results |
| --- | --- | --- | --- | --- | --- | --- |
| CC(=O)O[C@H]1CC[C@@]2(C)C(CC[C@]3(C)C2CC=C2C4[C@@H](C)[C@H](C)CC[C@]4(C(=O)NCCN4CCCCC4)CC[C@]23C)C1(C)C (stereo partly drawn) [Compound 41] | – | – | – | – | – | solubility under the conditions of the assay [1]: n.sol. |
| CC(=O)OC1CC2(C)C(CCC3(C)C2CC=C2C4CC(C)(C)CCC4(C(=O)NCCN(C)C)CCC23C)C(C)(C)C1OC(C)=O (stereo not drawn) [Compound 23, (2α,3β)-N-[2-(Dimethylamino)ethyl]-2,3-diacetyloxy-olean-12-en-28-amide] | – | – | – | – | – | solubility under the conditions of the assay [1]: n.sol. |
| CC(=O)O[C@H]1CC[C@]2(C)[C@H]3CC=C4[C@@H]5CC(C)(C)CC[C@]5(C(=O)NCCN5CCCC5)CC[C@@]4(C)[C@]3(C)CC[C@H]2C1(C)C [Compound 32, (3β)-N-(2-Pyrrolidin-1-ylethyl)-3-acetyloxy-olean-12-en-28-amide] | 7.29 ± 0.50 | mixed-type | 29.88 ± 1.13 | 2.02 ± 0.56 | 65.73 ± 0.14 | selectivity F (percent inhibition for AChE divided by percent inhibition for BChE) ([3]; towards BChE): 0.11 |
| CC(=O)OC1CC2(C)C(CCC3(C)C2CC=C2C4CC(C)(C)CCC4(C(=O)NCCN4CCCCC4)CCC23C)C(C)(C)C1OC(C)=O (stereo not drawn) [Compound 43, (2α,3β)-N-(2-Piperidin-1-ylethyl)-2,3-diacetyloxy-olean-12-en-28-amide] | – | – | – | – | – | Grade of inhibition in% AChE ([2]; c = 30 µM): 23.30 ± 0.10%; Grade of inhibition in% BChE ([3]; c = 30 µM): 53.47 ± 3.47% |
| CC(=O)O[C@H]1CC[C@@]2(C)C(CC[C@]3(C)C2CC=C2C4[C@@H](C)[C@H](C)CC[C@]4(C(=O)NCCN(C)C)CC[C@]23C)C1(C)C (stereo partly drawn) [Compound 21] | 10.78 ± 0.12 | mixed-type | 143.36 ± 0.02 | 6.48 ± 0.1 | 36.50 ± 0.30 | – |
| CC(=O)[C@@H]1CC[C@]2(C(=O)NCCN(C)C)CC[C@]3(C)[C@H](CC[C@@H]4[C@@]5(C)CC[C@H](O)C(C)(C)[C@@H]5CC[C@]43C)[C@@H]12 [Compound 30] | – | mixed-type | 4.46 ± 0.01 | 1.12 ± 0.01 | – | Type of Inhibition [2]: mixed-type; Ki' (uncompetitive inhibition) [2]: 74.05 ± 4.81 µM; Grade of inhibition in% AChE ([2]; c = 30 µM): 28.83 ± 0.80%; Ki [2]: 15.5 ± 3.91 µM; Grade of inhibition in% BChE ([3]; c = 30 µM): 89.76 ± 0.48% |
| C[C@@H]1CC[C@]2(C(=O)NCCN)CC[C@]3(C)C(=CCC4[C@@]5(C)CC[C@H](O)C(C)(C)C5CC[C@]43C)C2[C@H]1C (stereo partly drawn) [Compound 16] | 28.54 ± 0.51 | mixed-type | 12.15 ± 0.45 | 5.55 ± 0.12 | 64.10 ± 1.04 | – |
| CC(=O)OC1CCC2(C)C(CCC3(C)C2CC=C2C4CC(C)(C)CCC4(C(=O)NCCN(C)C)CCC23C)C1(C)C (stereo not drawn) [Compound 22, (3β)-N-[2-(Dimethylamino)-ethyl]-3-acetyloxy-olean-12-en-28-amide] | – | – | – | – | – | solubility under the conditions of the assay [1]: n.sol. |
| CC(=O)O[C@H]1CC[C@@]2(C)C(CC[C@]3(C)C2CC=C2C4[C@@H](C)[C@H](C)CC[C@]4(C(=O)NCCN4CCCC4)CC[C@]23C)C1(C)C (stereo partly drawn) [Compound 31] | 14.54 ± 0.36 | mixed-type | 6.00 ± 0.47 | 4.42 ± 0.34 | 50.49 ± 2.23 | Ki ([3]; experimental Ki restated in docking Table 3, unit inferred, read-out: Ki): 4.42 µM |
| CC(=O)O[C@H]1CC[C@]2(C)[C@H]3CC[C@@H]4[C@H]5[C@H](C(C)=O)CC[C@]5(C(=O)NCCN)CC[C@@]4(C)[C@]3(C)CC[C@H]2C1(C)C [Compound 15] | 44.71 ± 0.24 | mixed-type | 17.14 ± 1.67 | 11.9 ± 1.17 | 29.55 ± 2.97 | Type of Inhibition [2]: mixed-type; Ki' (uncompetitive inhibition) [2]: 6.83 ± 0.17 µM; Ki [2]: 3.06 ± 0.38 µM |
| CC(=O)OC1CCC2(C)C(CCC3(C)C2CC=C2C4CC(C)(C)CCC4(C(=O)NCCN)CCC23C)C1(C)C (stereo not drawn) [Compound 12, (3β)-N-(2-Aminoethyl)-3-acetyloxy-olean-12-en-28-amide] | – | – | – | – | – | Grade of inhibition in% AChE ([2]; c = 30 µM): 31.69 ± 0.04%; Grade of inhibition in% BChE ([3]; c = 30 µM): 57.54 ± 0.93% |
